The values below come from patent publication US8173841B2, “Tetrahydro-naphthalene derivatives” (Xention Limited, priority 2003, dated 2012).

One data set addresses T1, human VR1 (Homo sapiens, UniProt Q8NER1).
T1 construct: expressed in transfected cells
Briefly: Capsaicin-induced Ca2+ influx in the human VR1-transfected CHO cell line (Assay 1). It counts as cell-based. The conditions noted are these: human VR1-CHOluc9aeq cells, stimulation with 10 nM capsaicin, Fluo-3 AM / FDSS-3000; compounds of purity about 40 to 90%; read-out: Activity Class (IC50 of capsaicin-induced Ca2+ influx). The text has this:
[Measurement of Capsaicin-Induced Ca^2+ Influx in the Human VR1-Transfected CHO Cell Line] (Assay 1)
(1) Establishment of the Human VR1-CHOluc9aeq Cell Line
Human vanilloid receptor (hVR1) cDNA was cloned from libraries of axotomized dorsal root ganglia (WO 00/29577). The cloned hVR1 cDNA was constructed with pcDNA3 vector and transfected into a CHOluc9aeq cell line. The cell line contains aequorin and CRE-luciferase reporter genes as read-out signals. The transfectants were cloned by limiting dilution in selection medium (DMEM/F12 medium (Gibco BRL) supplemented with 10% FCS, 1.4 mM Sodium pyruvate, 20 mM HEPES, 0.15% Sodium bicarbonate, 100 U/ml penicillin, 100 μg/ml streptomycin, 2 mM glutamine, non-essential amino acids and 2 mg/ml G418). Ca^2+ influx was examined in the capsaicin-stimulated clones. A high responder clone was selected and used for further experiments in the project. The human VR1-CHOluc9aeq cells were maintained in the selection medium and passaged every 3-4 days at 1−2.5×10^5 cells/flask ([…]).
(2) Measurement of Ca^2+ influx using FDSS-3000
Human VR1-CHOluc9aeq cells were suspended in a culture medium which is the same as the selection medium except for G418 and seeded at a density of 1,000 cells per well into 384-well plates (black walled clear-base/Nalge Nunc International). Following the culture for 48 hrs the medium was changed to 2 μM Fluo-3 AM (Molecular Probes) and 0.02% Puronic F-127 in assay buffer (Hank's balanced salt solution (HBSS), 17 mM HEPES (pH7.4), 1 mM Probenecid, 0.1% BSA) and the cells were incubated for 60 min at 25° C. After washing twice with assay buffer the cells were incubated with a test compound or vehicle for 20 min at 25° C. Mobilization of cytoplasmic Ca^2+ was measured by FDSS-3000 (λex=488 nm, λem=540 nm/Hamamatsu Photonics) for 60 sec after the stimulation with 10 nM capsaicin. Integral R was calculated and compared with controls.
The data corresponds to the compounds as yielded by solid phase synthesis and thus to levels of purity of about 40 to 90%. For practical reasons, the compounds are grouped in four classes of activity as follows: IC50=A (< or =) 0.1 μM<B (< or =) 0.5 μM<C (< or =) 1 μM<D

T1 sequence (Q8NER1 whole entry): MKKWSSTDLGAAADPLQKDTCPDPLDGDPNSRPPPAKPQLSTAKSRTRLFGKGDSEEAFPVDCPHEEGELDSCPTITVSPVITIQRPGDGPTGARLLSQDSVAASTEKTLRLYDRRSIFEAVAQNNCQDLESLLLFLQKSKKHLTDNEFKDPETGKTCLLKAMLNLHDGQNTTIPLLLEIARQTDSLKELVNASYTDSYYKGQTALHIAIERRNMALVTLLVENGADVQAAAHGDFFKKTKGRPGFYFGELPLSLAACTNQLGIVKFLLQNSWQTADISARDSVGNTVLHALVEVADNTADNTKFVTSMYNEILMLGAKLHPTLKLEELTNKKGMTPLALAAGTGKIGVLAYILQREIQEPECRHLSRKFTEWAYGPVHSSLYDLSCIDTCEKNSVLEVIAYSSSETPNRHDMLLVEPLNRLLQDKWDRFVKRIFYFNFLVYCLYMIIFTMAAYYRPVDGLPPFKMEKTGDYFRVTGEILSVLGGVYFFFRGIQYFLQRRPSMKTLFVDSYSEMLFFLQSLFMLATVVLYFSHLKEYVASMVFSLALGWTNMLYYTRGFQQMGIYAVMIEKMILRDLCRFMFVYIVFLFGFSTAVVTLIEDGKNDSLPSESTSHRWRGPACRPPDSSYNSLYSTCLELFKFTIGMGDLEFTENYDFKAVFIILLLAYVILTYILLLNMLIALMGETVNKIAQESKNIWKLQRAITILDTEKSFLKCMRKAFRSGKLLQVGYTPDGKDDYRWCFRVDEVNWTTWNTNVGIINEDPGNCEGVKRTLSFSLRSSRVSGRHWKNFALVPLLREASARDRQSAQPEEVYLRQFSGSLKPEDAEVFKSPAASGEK

Consider `Cc1ccc(-c2cccc(NC(=O)Nc3cccc4c3CC(O)CC4)c2)cc1` (stereo not drawn) [Example 1-1, N-(7-Hydroxy-5,6,7,8-tetrahydronaphthalen-1-yl)-N′-(4′-methylbiphenyl-3-yl)urea], for which the melting point – broadly, the temperature of the solid-liquid transition – was in the range of 217 to 219 °C. On human VR1, the half-maximal inhibitory concentration (IC50) (in general, the concentration that gives 50% inhibition) is less than 100 nM.

`CCOC(=O)c1ccc(-c2cccc(NC(=O)Nc3cccc4c3CC(O)CC4)c2)cc1` (stereo not drawn) [Example 1-2] came in with a melting point of 198 to 200 °C. Also, the IC50 on human VR1 is less than 100 nM.

The molecule `O=C(Nc1cccc(-c2ccc(Cl)c(F)c2)c1)Nc1cccc2c1CC(O)CC2` (stereo not drawn) [Example 1-3] came in with a melting point of 94 to 96 °C. Moreover, on human VR1, the IC50 is less than 100 nM.

Consider `O=C(Nc1cccc(-c2ccc(C(=O)O)cc2)c1)Nc1cccc2c1CC(O)CC2` (stereo not drawn) [Example 1-4], for which the melting point was 281 to 284 °C. In addition, on human VR1, the IC50 is less than 100 nM.

Consider `O=C(Nc1cccc(-c2ccc(F)cc2F)c1)Nc1cccc2c1CC(O)CC2` (stereo not drawn) [Example 1-5], for which the melting point was in the range of 187 to 189 °C. Moreover, the half-inhibitory concentration (IC50) on human VR1 was less than 100 nM.

`CCOC(=O)c1cccc(-c2cccc(NC(=O)Nc3cccc4c3CC(O)CC4)c2)c1` (stereo not drawn) [Example 1-6] showed a melting point of 142 to 144 °C. In addition, the IC50 on human VR1 is less than 100 nM.

`O=C(Nc1cccc(-c2ccc(C(F)(F)F)cc2)c1)Nc1cccc2c1CC(O)CC2` (stereo not drawn) [Example 1-7]: the 50% inhibitory concentration (IC50) on human VR1 was less than 100 nM.

In the case of `O=C(Nc1cccc(-c2ccccc2Cl)c1)Nc1cccc2c1CC(O)CC2` (stereo not drawn) [Example 1-8], the IC50 at human VR1 was less than 100 nM.

On to `O=C(Nc1cccc(-c2ccccc2C(F)(F)F)c1)Nc1cccc2c1CC(O)CC2` (stereo not drawn) [Example 1-9], for which, at human VR1, the IC50 is less than 100 nM.

With `CSc1ccc(-c2cccc(NC(=O)Nc3cccc4c3CC(O)CC4)c2)cc1` (stereo not drawn) [Example 1-10], the IC50 at human VR1 is less than 100 nM.

With `O=C(Nc1cccc(-c2cc(F)cc(F)c2)c1)Nc1cccc2c1CC(O)CC2` (stereo not drawn) [Example 1-11], on human VR1, the IC50 was less than 100 nM.

As to `Cc1cc(C)cc(-c2cccc(NC(=O)Nc3cccc4c3CC(O)CC4)c2)c1` (stereo not drawn) [Example 1-12], the melting point was determined as 221 °C. The IC50 at human VR1 is less than 100 nM.

As to `COc1cccc(-c2cccc(NC(=O)Nc3cccc4c3CC(O)CC4)c2)c1` (stereo not drawn) [Example 1-13], the melting point is 204 °C. Moreover, on human VR1, the IC50 is less than 100 nM.

`COc1ccc(-c2cccc(NC(=O)Nc3cccc4c3CC(O)CC4)c2)cc1` (stereo not drawn) [Example 1-14] registered a melting point of 203 °C. The IC50 at human VR1 is less than 100 nM.

As to `COc1ccc(OC)c(-c2cccc(NC(=O)Nc3cccc4c3CC(O)CC4)c2)c1` (stereo not drawn) [Example 1-15], the melting point is 190 °C. Further, the IC50 on human VR1 is less than 100 nM.

Regarding `O=C(Nc1cccc(-c2ccc(F)cc2)c1)Nc1cccc2c1CC(O)CC2` (stereo not drawn) [Example 1-16], the melting point was determined as 228 °C. The IC50 on human VR1 was less than 100 nM.

Regarding `O=C(Nc1cccc(-c2ccc(F)c(F)c2)c1)Nc1cccc2c1CC(O)CC2` (stereo not drawn) [Example 1-17], the melting point stood at 216 °C. For the same molecule, at human VR1, the IC50 was less than 100 nM.

`O=C(Nc1cccc(-c2cccc(Cl)c2)c1)Nc1cccc2c1CC(O)CC2` (stereo not drawn) [Example 1-18] returned a melting point of 209 °C. The IC50 at human VR1 was less than 100 nM.

`O=C(Nc1cccc(-c2cc(Cl)cc(Cl)c2)c1)Nc1cccc2c1CC(O)CC2` (stereo not drawn) [Example 1-19] showed a melting point of 221 °C. In addition, the IC50 on human VR1 was less than 100 nM.

Turning to `O=C(Nc1cccc(-c2cccc(Cl)c2Cl)c1)Nc1cccc2c1CC(O)CC2` (stereo not drawn) [Example 1-20], the melting point worked out at 204 °C. In addition, the 50% inhibitory concentration (IC50) on human VR1 was less than 100 nM.

In the case of `O=C(Nc1cccc(-c2ccc(Cl)cc2Cl)c1)Nc1cccc2c1CC(O)CC2` (stereo not drawn) [Example 1-21], the melting point came to 208 °C. Moreover, the IC50 at human VR1 was less than 100 nM.

On to `O=C(Nc1cccc(-c2ccc(OCCN3CCOCC3)cc2)c1)Nc1cccc2c1CC(O)CC2` (stereo not drawn) [Example 1-29], for which the IC50 at human VR1 is less than 100 nM.

In the case of `O=C(Cc1cccc(-c2ccc(F)cc2)c1)Nc1cccc2c1CC(O)CC2` (stereo not drawn) [Example 3-2], the IC50 at human VR1 fell in the range of 500 to 1000 nM.
